Data taken from paper PMC4805651, “Inhibition of DNA–Topoisomerase I by Acylated Triterpene Saponins from Pittosporum angustifolium Lodd” (Natural Products and Bioprospecting, 2016).

Tests used:
[1] = test system: MCF-7: human breast cancer cells; parameters: method as in PMID 24046217, PMID 25069157; conditions: ±SD, ref [3], [5], [10], read-out: IC50 [µM] Cytotoxicity MCF-7; cited from earlier work
[2] = test system: LN-18: human glioblastoma cells; parameters: method as in PMID 24046217, PMID 25069157; conditions: ±SD, ref [3], [5], [10], read-out: IC50 [µM] Cytotoxicity LN-18; cited from earlier work
[3] = test system: 5637: human urinary bladder carcinoma cells; parameters: method as in PMID 24046217, PMID 25069157; conditions: ±SD, ref [3], [5], [10], read-out: IC50 [µM] Cytotoxicity 5637; cited from earlier work
[4] = test system: HaCat: human keratinocyte cells; parameters: method as in PMID 24046217, PMID 25069157; conditions: ±SD; HaCaT human keratinocyte cells (non-tumorigenic); ref [3], [5], [10]; read-out: IC50 [µM] Cytotoxicity HaCaT; cited from earlier work
[5] = biological target: T1, human topoisomerase I (Homo sapiens, UniProt P11387); test: DNA relaxation assay on human topoisomerase I (gel based, supercoiled pBR322); type: biochemical; conditions: ±SD, n = 2; relaxation of supercoiled pBR322, 37 °C, 30 min, 10 % DMSO; read-out: IC50 [µM] Topo I
T1 construct: purchased Inspiralis Limited, UK (assay run by the vendor as a service)
T1 sequence (P11387 1-765): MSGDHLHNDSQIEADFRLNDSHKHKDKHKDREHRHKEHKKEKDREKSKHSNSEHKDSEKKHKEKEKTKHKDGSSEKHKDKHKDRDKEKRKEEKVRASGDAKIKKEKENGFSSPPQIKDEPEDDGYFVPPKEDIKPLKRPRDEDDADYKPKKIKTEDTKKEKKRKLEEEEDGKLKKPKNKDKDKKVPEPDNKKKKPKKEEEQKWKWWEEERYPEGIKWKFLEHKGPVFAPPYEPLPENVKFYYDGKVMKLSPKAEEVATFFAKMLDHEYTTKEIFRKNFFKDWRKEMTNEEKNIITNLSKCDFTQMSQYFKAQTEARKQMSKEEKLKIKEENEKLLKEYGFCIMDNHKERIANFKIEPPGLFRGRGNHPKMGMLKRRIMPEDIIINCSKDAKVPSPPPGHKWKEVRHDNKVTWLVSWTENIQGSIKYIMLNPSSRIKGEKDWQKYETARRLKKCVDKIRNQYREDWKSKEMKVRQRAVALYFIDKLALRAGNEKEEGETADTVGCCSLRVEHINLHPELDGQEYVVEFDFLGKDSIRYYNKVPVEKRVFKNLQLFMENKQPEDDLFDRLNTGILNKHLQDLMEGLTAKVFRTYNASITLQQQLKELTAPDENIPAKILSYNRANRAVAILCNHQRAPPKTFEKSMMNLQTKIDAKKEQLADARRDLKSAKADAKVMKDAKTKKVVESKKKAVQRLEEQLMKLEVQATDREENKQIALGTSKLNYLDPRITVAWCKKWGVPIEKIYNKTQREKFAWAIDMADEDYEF
Protocol: The relaxation assay on human topoisomerase I was carried out by Inspiralis Limited®, UK, according to their SOP (standard operating procedure). All compounds were dissolved in DMSO and then diluted to yield concentration ranges from 1 nM to 1 mM. […] 1 U (the amount of enzyme required to completely relax the substrate) was incubated with 0.5 µg supercoiled plasmid DNA (pBR322) at 37 °C for 30 min in a 30 µL reaction mixture of 20 mM Tris HCL (pH 7.5), 200 mM NaCl, 0.25 mM EDTA and 5 % glycerol. The reaction was stopped by adding 30 µL chloroform/iso-amyl alcohol (26:1) and 20 µL Stop Dye (40 % sucrose, 100 mM Tris HCl (pH 7.5), 10 mM EDTA, 0.5 μg/mL bromophenol blue) before being loaded on a 0.8 % TAE gel run for 2 h at 80 V. Then bands were visualized by ethidium staining for 10 min and analyzed by documentation equipment (Syngene, Cambridge, UK), gel scanning software (Syngene, GeneTools) and SigmaPlot version 12.3. All assays were carried out in a final DMSO concentration of 10 % and were performed twice.

SMILES | IC50 [1] [µM] | IC50 [2] [µM] | IC50 [3] [µM] | IC50 [4] [µM] | IC50 [5] [µM]
CC=C(C)C(=O)OC1CC(C)(C)CC2C3=CCC4C5(C)CCC(OC6OC(C(=O)O)C(OC7OC(CO)C(O)C7O)C(OC7OCC(O)C(O)C7O)C6OC6OC(CO)C(O)C(O)C6O)C(C)(C)C5CCC4(C)C3(C)C(O)C(O)C12CO (centres unmarked) [Compound 1, pittangretoside A] | 25.7 ± 1.9 | 7.6 ± 1.7 | 4.1 ± 1 | 15.2 ± 0.9 | 7.5 ± 0.6
CC=C(C)C(=O)OC1CC(C)(C)CC2C3=CCC4C5(C)CCC(OC6OC(C(=O)O)C(O)C(O)C6OC6OC(CO)C(O)C(O)C6OC6OC(C)C(O)C(O)C6O)C(C)(C)C5CCC4(C)C3(C)C(O)C(O)C12CO (centres unmarked) [Compound 2, pittangretoside D] | 36.6 ± 5.7 | 35.7 ± 5.2 | 17.9 ± 1 | > 118 | 4.8 ± 2.4
CCC(C)C(=O)OCC12C(O)CC(C)(C)CC1C1=CCC3C4(C)CCC(OC5OC(C(=O)O)C(OC6OC(CO)C(O)C6O)C(OC6OCC(O)C(O)C6O)C5OC5OC(CO)C(O)C(O)C5O)C(C)(C)C4CCC3(C)C1(C)C(O)C2O (centres unmarked) [Compound 3, pittangretoside F] |  |  | > 106 |  | 16.8 ± 0.4
CC=C(C)C(=O)OC1C(OC(C)=O)C2(CO)C(CC1(C)C)C1=CCC3C4(C)CCC(OC5OC(C(=O)O)C(OC6OC(CO)C(O)C6O)C(OC6OCC(O)C(O)C6O)C5OC5OC(CO)C(O)C(O)C5O)C(C)(C)C4CCC3(C)C1(C)C(O)C2O (centres unmarked) [Compound 4, IIIA3] | 19.8 ± 2.2 | 13.4 ± 0.8 |  | 15.9 ± 1.3 | 8.6 ± 0.1
CC=C(C)C(=O)OC1C(OC(C)=O)C(C)(C)CC2C3=CCC4C5(C)CCC(OC6OC(C(=O)O)C(OC7OC(CO)C(O)C7O)C(OC7OCC(O)C(O)C7O)C6OC6OC(CO)C(O)C(O)C6O)C(C)(C)C5CCC4(C)C3(C)C(O)C(O)C21CO (centres unmarked) [Compound 5, pittangretoside N] | 28.7 ± 3.6 | 10.4 ± 2.7 |  | 34.1 ± 2.8 | 6.5 ± 0.6
CCC(C)(OC(C)=O)C(=O)OC1C(OC(C)=O)C(C)(C)CC2C3=CCC4C5(C)CCC(OC6OC(C(=O)O)C(OC7OC(CO)C(O)C7O)C(OC7OCC(O)C(O)C7O)C6OC6OC(CO)C(O)C(O)C6O)C(C)(C)C5CCC4(C)C3(C)C(O)C(O)C21CO (centres unmarked) [Compound 6, pittangretoside O] | 22.9 ± 1.8 | 4.4 ± 0.7 |  | 19.2 ± 2.1 | 7.5 ± 1.6
CCC(C)C(=O)OC1C(OC(C)=O)C2(CO)C(CC1(C)C)C1=CCC3C4(C)CCC(OC5OC(C(=O)O)C(OC6OC(CO)C(O)C6O)C(OC6OCC(O)C(O)C6O)C5OC5OC(CO)C(O)C(O)C5O)C(C)(C)C4CCC3(C)C1(C)C(O)C2O (centres unmarked) [Compound 7, pittangretoside P] | 28.7 ± 3.2 | 7 ± 0.9 |  | 11.2 ± 0.5 | 4.2 ± 0.2
CCC(C)C(=O)OC1CC(C)(C)CC2C3=CCC4C5(C)CCC(OC6OC(C(=O)O)C(OC7OC(CO)C(O)C7O)C(OC7OCC(O)C(O)C7O)C6OC6OC(CO)C(O)C(O)C6O)C(C)(C)C5CCC4(C)C3(C)C(O)C(O)C12CO (centres unmarked) [Compound 8] |  | 3.9 ± 0.1 |  |  | 2.8 ± 1.1
CC=C(C)C(=O)OC1C(OC(=O)C(C)=CC)C2(CO)C(CC1(C)C)C1=CCC3C4(C)CCC(OC5OC(C(=O)O)C(OC6OC(CO)C(O)C6O)C(OC6OCC(O)C(O)C6O)C5OC5OC(CO)C(O)C(O)C5O)C(C)(C)C4CCC3(C)C1(C)C(O)C2O (centres unmarked) [Compound 9, IIIC4] | 8.9 ± 0.8 | 4.6 ± 0.5 |  | 2.2 ± 0.5 | 46.5 ± 11.5
CC=C(C)C(=O)OC1C(OC(=O)C(C)=CC)C2(CO)C(O)CC3(C)C(=CCC4C5(C)CCC(OC6OC(C(=O)O)C(OC7OC(CO)C(O)C7O)C(OC7OCC(O)C(O)C7O)C6OC6OC(CO)C(O)C(O)C6O)C(C)(C)C5CCC43C)C2CC1(C)C (centres unmarked) [Compound 10, pittangretoside T] |  |  |  |  | 5 ± 3.3
